Drawing on patent US20260022142A1, “MACROCYCLIC IMMUNOMODULATORS” (Bristol-Myers Squibb Company, priority 2022, published 2026), this text covers IC50 for twelve compounds.

Numbered stars: 1 amine (or outer) side, 2 acyl side, 3 side chain; on linkers, the order of the positions; unused ones are H or OH. Bridge positions count the residues as written; N and C are the ends. Square brackets hold non-standard residues; d marks the D form. Peptide text beside a SMILES is read from it. * marks the point of attachment. ξ: configuration not given here. Phe(3-CF3) = N[C@@H](Cc1cccc(C(F)(F)F)c1)C(=O)O; Phe(4-CONH2) = NC(=O)c1ccc(C[C@H](N)C(=O)O)cc1; Phe(4-COOH) = N[C@@H](Cc1ccc(C(=O)O)cc1)C(=O)O; Bip = N[C@@H](Cc1ccc(-c2ccccc2)cc1)C(=O)O; NH(CH2)16COOH = O=C(O)CCCCCCCCCCCCCCCCN*; Tyr(3-Me) = Cc1cc(C[C@H](N)C(=O)O)ccc1O; Phe(3-Me) = Cc1cccc(C[C@H](N)C(=O)O)c1; γGlu = O=C(O)[C@H](CCC(=O)[*:2])N[*:1]; NH(CH2)12COOH = O=C(O)CCCCCCCCCCCCN*; Val(3-OH) = CC(C)(O)[C@H](N)C(=O)O; 4Pal = N[C@@H](Cc1ccncc1)C(=O)O; Cha = N[C@@H](CC1CCCCC1)C(=O)O; Cit = NC(=O)NCCC[C@H](N)C(=O)O; Thr(3ξ) = CC(O)[C@H](N)C(=O)O; 12Ado = NCCCCCCCCCCCC(=O)O; hSer = N[C@@H](CCO)C(=O)O; Carboxymethyl = O=C(O)C*; Orn = NCCC[C@H](N)C(=O)O; Aun = NCCCCCCCCCCC(=O)O; Dab = NCC[C@H](N)C(=O)O; Dap = NC[C@H](N)C(=O)O; AEEA = NCCOCCOCC(=O)O; ξC = NC(CS)C(=O)O

T1 sequence (Q15116 25-288): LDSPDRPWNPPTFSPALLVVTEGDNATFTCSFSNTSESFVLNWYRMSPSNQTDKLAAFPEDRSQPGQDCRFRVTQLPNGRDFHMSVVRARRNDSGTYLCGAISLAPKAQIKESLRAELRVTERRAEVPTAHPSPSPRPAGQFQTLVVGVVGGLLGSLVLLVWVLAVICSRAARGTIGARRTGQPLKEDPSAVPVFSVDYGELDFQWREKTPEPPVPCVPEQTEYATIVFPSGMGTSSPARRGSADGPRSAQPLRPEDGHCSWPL

The experiment concerns the target T1, PD-1/PD-L1 interaction (PE-labeled human PD-L1-Ig binding to Jurkat cell line over-expressing human PD-1) (Homo sapiens, UniProt Q15116).
T1 construct: expressed in transfected cells; host or cells: Jurkat
The experiment can be described thus: Jurkat-PD-1 Cell Binding High-Content Screening Assay (CBA). In kind it is cell-based. Particulars: Jurkat cell line over-expressing human PD-1; PE-labeled PD-L1-Ig 20 nM final; read-out: Jurkat hPD1-PDL1 IC50. The method in brief: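 Binding of fluorescent PD-L1-Ig (20 nM final) to Jurkat-PD-1 cells was measured by automated imaging after 1 h, following a 2 h compound pre-treatment at 37° C.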
Take `CC(C)C[C@H]1NC(=O)[C@H](CCCN)NC(=O)[C@H](Cc2ccc(OCC(=O)O)cc2)NC(=O)[C@H](Cc2ccc(-c3ccccc3)cc2)NC(=O)[C@H](Cc2ccc(OCC(=O)O)cc2)NC(=O)[C@H](Cc2cccc(C(F)(F)F)c2)NC(=O)[C@H](CC(=O)O)NC(=O)[C@H](Cc2ccc(OCC(=O)O)cc2)NC(=O)[C@H](CCN)NC(=O)CSC[C@@H](C(=O)N[C@@H](CCN)C(=O)NCCCCCCCCCCC(=O)O)NC(=O)[C@H](C(C)O)NC(=O)[C@H](C(C)C)NC(=O)[C@H](CC2CCCCC2)NC(=O)[C@H](CCN)NC1=O` (stereo partly drawn) [Compound 3820] ({CH2CO}-[Dab]Y(Carboxymethyl)D[Phe(3-CF3)]Y(Carboxymethyl)[Bip]Y(Carboxymethyl)[Orn][dL][Dab][Cha]V[Thr(3ξ)]C[Dab][Aun]-OH; thioether N-14): the IC50 – broadly, the midpoint of a concentration-inhibition curve – came out at 6.8 nM. Next, `Cc1cccc(C[C@@H]2NC(=O)[C@H](CC(=O)O)NC(=O)[C@H](Cc3ccc(OCC(=O)O)cc3)NC(=O)[C@H](C)NC(=O)CSC[C@@H](C(=O)N[C@@H](CCN)C(=O)NCCOCCOCC(=O)NCCOCCOCC(=O)N[C@@H](CCC(=O)N[C@@H](CCC(=O)NCCCCCCCCCCCCCCCCC(=O)O)C(=O)O)C(=O)O)NC(=O)[C@H](Cc3c[nH]cn3)NC(=O)[C@H](C(C)(C)O)NC(=O)[C@H](CC3CCCCC3)NC(=O)[C@H](CCN)NC(=O)[C@@H](CC(C)C)NC(=O)[C@H](CCCN)NC(=O)[C@H](Cc3ccc(OCC(=O)O)cc3)NC(=O)[C@H](Cc3ccc(-c4ccccc4)cc3)NC(=O)[C@H](Cc3ccc(OCC(=O)O)cc3)NC2=O)c1` [Compound 3871] ({CH2CO}-AY(Carboxymethyl)D[Phe(3-Me)]Y(Carboxymethyl)[Bip]Y(Carboxymethyl)[Orn][dL][Dab][Cha][Val(3-OH)]HC[Dab][AEEA][AEEA][γGlu][γGlu]-{NH(CH2)16COOH}; thioether N-14): 45.7 nM; `Cc1cccc(C[C@@H]2NC(=O)[C@H](CC(=O)O)NC(=O)[C@H](Cc3ccc(OCC(=O)O)cc3)NC(=O)[C@H](Cc3ccncc3)NC(=O)CSC[C@@H](C(=O)N[C@@H](CO)C(=O)NCCCCCCCCCCC(=O)O)NC(=O)[C@H](C(C)O)NC(=O)[C@H](C(C)(C)O)NC(=O)[C@H](CC3CCCCC3)NC(=O)[C@H](CCN)NC(=O)[C@@H](CC(C)C)NC(=O)[C@H](CCCN)NC(=O)[C@H](Cc3ccc(O)cc3)NC(=O)[C@H](Cc3ccc(-c4ccccc4)cc3)NC(=O)[C@H](Cc3ccc(C(N)=O)cc3)NC2=O)c1` (stereo partly drawn) [Compound 3726] ({CH2CO}-[4Pal]Y(Carboxymethyl)D[Phe(3-Me)][Phe(4-CONH2)][Bip]Y[Orn][dL][Dab][Cha][Val(3-OH)][Thr(3ξ)]CS[Aun]-OH; thioether N-14): 13.1 nM; `CC(C)C[C@H]1NC(=O)[C@H](CCCN)NC(=O)[C@H](C(C)C)NC(=O)[C@H](Cc2ccc(-c3ccccc3)cc2)NC(=O)[C@H](C(C)C)NC(=O)[C@H](Cc2c[nH]c3ccccc23)NC(=O)[C@H](CC(=O)O)NC(=O)[C@H](Cc2ccc(C(=O)O)cc2)NC(=O)[C@H](Cc2ccc(OCC(=O)O)cc2)NC(=O)CSC[C@@H](C(=O)NCC(=O)NCCOCCOCC(=O)N[C@@H](CCCN)C(=O)NCCCCCCCCCCCC(=O)O)NC(=O)[C@H](CN)NC(=O)[C@H](C(C)C)NC(=O)[C@H](CC2CCCCC2)NC(=O)[C@H](CCN)NC1=O` [Compound 3171] ({CH2CO}-Y(Carboxymethyl)[Phe(4-COOH)]DWV[Bip]V[Orn][dL][Dab][Cha]V[Dap]CG[AEEA][Orn][12Ado]-OH; thioether N-14): 6.1 nM. Next, `Cc1cccc(C[C@@H]2NC(=O)[C@H](CC(=O)O)NC(=O)[C@H](Cc3ccc(OCC(=O)O)cc3)NC(=O)[C@H](CN)NC(=O)CSC[C@@H](C(=O)N[C@@H](CCCN)C(=O)N[C@@H](CO)C(=O)NCCCCCCCCCCCC(=O)O)NC(=O)[C@H](C(C)O)NC(=O)[C@H](CCO)NC(=O)[C@H](CC3CCCCC3)NC(=O)[C@H](CCN)NC(=O)[C@@H](CC(C)C)NC(=O)[C@H](CCCN)NC(=O)[C@H](CCCNC(N)=O)NC(=O)[C@H](Cc3ccc(-c4ccccc4)cc3)NC(=O)[C@H](C(C)C)NC2=O)c1` (stereo partly drawn) [Compound 3587] ({CH2CO}-[Dap]Y(Carboxymethyl)D[Phe(3-Me)]V[Bip][Cit][Orn][dL][Dab][Cha][hSer][Thr(3ξ)]C[Orn]S[12Ado]-OH; thioether N-14): 33.5 nM. Turning to `Cc1cc(C[C@@H]2NC(=O)[C@H](CC(=O)O)NC(=O)[C@H](Cc3ccc(OCC(=O)O)cc3)NC(=O)[C@H](CN)NC(=O)CSC[C@@H](C(=O)N[C@@H](CCN)C(=O)NCCCCCCCCCCC(=O)O)NC(=O)[C@H]([C@@H](C)O)NC(=O)[C@H](C(C)C)NC(=O)[C@H](CC3CCCCC3)NC(=O)[C@H](CCN)NC(=O)[C@@H](CC(C)C)NC(=O)[C@H](CCCN)NC(=O)[C@H](Cc3ccc(OCC(=O)O)cc3)NC(=O)[C@H](Cc3ccc(-c4ccccc4)cc3)NC(=O)[C@H](Cc3ccc(O)cc3)NC2=O)ccc1O` [Compound 2108] ({CH2CO}-[Dap]Y(Carboxymethyl)D[Tyr(3-Me)]Y[Bip]Y(Carboxymethyl)[Orn][dL][Dab][Cha]VTC[Dab][Aun]-OH; thioether N-14), the 50% inhibitory concentration (IC50) came out at 21 nM. Next, `Cc1cccc(C[C@@H]2NC(=O)[C@H](CC(=O)O)NC(=O)[C@H](Cc3ccc(OCC(=O)O)cc3)NC(=O)[C@H]([C@@H](C)O)NC(=O)CSC[C@@H](C(=O)N[C@@H](CCN)C(=O)NCCOCCOCC(=O)NCCCCCCCCCCCCC(=O)O)NC(=O)[C@H](CO)NC(=O)[C@H](C(C)(C)O)NC(=O)[C@H](CC3CCCCC3)NC(=O)[C@H](CCN)NC(=O)[C@@H](CC(C)C)NC(=O)[C@H](CCCN)NC(=O)[C@H](Cc3ccc(OCC(=O)O)cc3)NC(=O)[C@H](Cc3ccc(-c4ccccc4)cc3)NC(=O)[C@H](Cc3ccc(OCC(=O)O)cc3)NC2=O)c1` [Compound 2249] ({CH2CO}-TY(Carboxymethyl)D[Phe(3-Me)]Y(Carboxymethyl)[Bip]Y(Carboxymethyl)[Orn][dL][Dab][Cha][Val(3-OH)]SC[Dab][AEEA]-{NH(CH2)12COOH}; thioether N-14): 16 nM.

In the case of `CC(C)C[C@H]1NC(=O)[C@H](CCCN)NC(=O)[C@H](CCC(=O)O)NC(=O)[C@H](Cc2ccc(-c3ccccc3)cc2)NC(=O)[C@H](C(C)C)NC(=O)[C@H](Cc2c[nH]c3ccccc23)NC(=O)[C@H](CC(=O)O)NC(=O)[C@H](Cc2ccc(OCC(=O)O)cc2)NC(=O)[C@H](CN)NC(=O)CSCC(C(=O)NCCOCCOCC(=O)NCCCCCCCCCCC(=O)O)NC(=O)[C@H](CCCCN)NC(=O)[C@H](C(C)C)NC(=O)[C@H](CC2CCCCC2)NC(=O)[C@H](CCN)NC1=O` (stereo partly drawn) [Compound 2665] ({CH2CO}-[Dap]Y(Carboxymethyl)DWV[Bip]E[Orn][dL][Dab][Cha]VK[ξC][AEEA][Aun]-OH; thioether N-14), the IC50 was 22.2 nM.

On to `CC(C)C[C@H]1NC(=O)[C@H](CCCN)NC(=O)[C@H](C(C)C)NC(=O)[C@H](Cc2ccc(-c3ccccc3)cc2)NC(=O)[C@H](C(C)C)NC(=O)[C@H](Cc2c[nH]c3ccccc23)NC(=O)[C@H](CC(=O)O)NC(=O)[C@H](Cc2ccc(OCC(=O)O)cc2)NC(=O)[C@H](C(C)O)NC(=O)CSC[C@@H](C(=O)N[C@H](CC(N)=O)C(=O)NCCOCCOCC(=O)NCCCCCCCCCCC(=O)O)NC(=O)[C@H](CO)NC(=O)[C@H](C(C)C)NC(=O)[C@H](CC2CCCCC2)NC(=O)[C@H](CCN)NC1=O` (stereo partly drawn) [Compound 3053] ({CH2CO}-[Thr(3ξ)]Y(Carboxymethyl)DWV[Bip]V[Orn][dL][Dab][Cha]VSC[dN][AEEA][Aun]-OH; thioether N-14), for which the half-maximal inhibitory concentration (IC50) was determined as 8.8 nM. Next, `CC(C)C[C@@H]1NC(=O)[C@H](Cc2c[nH]c3ccccc23)NC(=O)[C@H](CC(=O)O)NC(=O)[C@H](Cc2ccc(C(=O)O)cc2)NC(=O)[C@H](Cc2ccc(OCC(=O)O)cc2)NC(=O)CSC[C@@H](C(=O)N[C@@H](CCCCN)C(=O)NCCCCCCCCCCC(=O)O)NC(=O)[C@H](CCCNC(N)=O)NC(=O)[C@H](C(C)C)NC(=O)[C@H](CC2CCCCC2)NC(=O)[C@H](CCN)NC(=O)[C@@H](CC(C)C)NC(=O)[C@H](CCCN)NC(=O)[C@H](Cc2ccc(O)cc2)NC(=O)[C@H](Cc2ccc(-c3ccccc3)cc2)NC1=O` [Compound 1236] ({CH2CO}-Y(Carboxymethyl)[Phe(4-COOH)]DWL[Bip]Y[Orn][dL][Dab][Cha]V[Cit]CK[Aun]-OH; thioether N-14): 35.7 nM; `Cc1cccc(C[C@@H]2NC(=O)[C@H](CC(=O)O)NC(=O)[C@H](Cc3ccc(OCC(=O)O)cc3)NC(=O)[C@H](CN)NC(=O)CSC[C@@H](C(=O)N[C@@H](CCN)C(=O)NCCCCCCCCCCC(=O)O)NC(=O)[C@H](CCO)NC(=O)[C@H](C(C)C)NC(=O)[C@H](CC3CCCCC3)NC(=O)[C@H](CCN)NC(=O)[C@@H](CC(C)C)NC(=O)[C@H](CCCN)NC(=O)[C@H](Cc3ccc(OCC(=O)O)cc3)NC(=O)[C@H](Cc3ccc(-c4ccccc4)cc3)NC(=O)[C@H](C(C)C)NC2=O)c1` [Compound 2099] ({CH2CO}-[Dap]Y(Carboxymethyl)D[Phe(3-Me)]V[Bip]Y(Carboxymethyl)[Orn][dL][Dab][Cha]V[hSer]C[Dab][Aun]-OH; thioether N-14): 18 nM. Next, `Cc1cccc(C[C@@H]2NC(=O)[C@H](CC(=O)O)NC(=O)[C@H](Cc3ccc(OCC(=O)O)cc3)NC(=O)[C@H](CN)NC(=O)CSC[C@@H](C(=O)N[C@@H](CCN)C(=O)NCCCCCCCCCCC(=O)O)NC(=O)[C@H](CO)NC(=O)[C@H](C(C)(C)O)NC(=O)[C@H](CC3CCCCC3)NC(=O)[C@H](CCN)NC(=O)[C@@H](CC(C)C)NC(=O)[C@H](CCCN)NC(=O)[C@H](Cc3ccc(OCC(=O)O)cc3)NC(=O)[C@H](Cc3ccc(-c4ccccc4)cc3)NC(=O)[C@H](Cc3ccc(OCC(=O)O)cc3)NC2=O)c1` [Compound 2213] ({CH2CO}-[Dap]Y(Carboxymethyl)D[Phe(3-Me)]Y(Carboxymethyl)[Bip]Y(Carboxymethyl)[Orn][dL][Dab][Cha][Val(3-OH)]SC[Dab][Aun]-OH; thioether N-14): 11 nM.
